From paper PMC6539310, “Investigation on the Enzymatic Profile of Mulberry Alkaloids by Enzymatic Study and Molecular Docking” (Molecules, 2019) come the findings set out here.

Assay [1] deals with T1, sucrase (Rattus norvegicus, UniProt P23739).
T1 construct: Sucrase and maltase were obtained from the intestinal brush border of Wistar rats; from tissue; host or cells: intestinal brush border of Wistar rats
Put plainly: α-glucosidase inhibition assay, sucrase (sucrose substrate, glucose oxidase readout). It is filed as biochemical, Wistar rats. To be noted: for Sucrase Inhibition, Inhibition Ratio (%): at 4 × 10^−5 M. On the procedure:
(§1) Sucrase and maltase were obtained from the intestinal brush border of Wistar rats. […] Each stock solution was prepared with distilled water. All other solvents and chemicals were of analytical purity.
The modified inhibitory screening system was used to determine inhibitory activity on α-glucosidase. Selected starch, sucrose, and maltose were used as α-glucosidase substrates instead of p-nitrophenyl glucopyranoside. Maltase and sucrase were pre-incubated with different concentrations of compound (0.004–400 μmol/L) at 37 °C for 8 min, and the substrate was then added into initiate the reaction. After incubation at 37 °C for 40 min, 150 μL of glucose oxidase solution was added to each mixture and incubated at 37 °C for 40 min. […] Inhibitory percentage values were calculated using the formula: %Inhibition = (B − C)/B × 100, where B is the formation of glucose under the enzyme without compound and C is the formation of glucose with compound.

The next assay concerns the target α-amylase. As to the kind of experiment: α-amylase inhibition assay (starch-iodine). Format: biochemical. The following applies: for α-Amylase Inhibition, Inhibition Ratio (%): at 1 × 10^−5 M. Here is the method: as §1
α-amylase was pre-incubated with different compound concentrations (0.016–100 μmol/L) at 37 °C for 15 min, and the reaction was initiated with the addition of 100 µL of 0.04% starch solution. After incubation at 37 °C for 10 min, 0.1 M iodine reagent was added. Absorption at 660 nm was measured to determine the remaining amount of starch in the reaction and thus calculate the inhibitory effect in the different samples.

The target of a further assay is maltase (Rattus norvegicus, UniProt D3ZTX4). As to the kind of experiment: Enzyme-kinetic analysis on maltase (Lineweaver–Burk plots). To be noted: maltose substrate. It is filed as biochemical, Wistar rats. On the procedure: as §1
(§2) Lineweaver–Burk double reciprocal plots (LB plots) were then obtained to calculate the kinetic constants and evaluate inhibitory type, the equation is as follows: 1/V = (Km + [S])/(Vmax[S]) = (Km/Vmax) * (1/[S]) + (1/Vmax),
(§3) In this equation, [S] denotes the concentration of substrate, V represents the enzyme reaction velocity and Km is the Michaelis–Menten constant.

Assay [2] has as its target T1, sucrase. Put plainly: Enzyme-kinetic analysis on sucrase (Lineweaver–Burk plots). It is filed as biochemical, Wistar rats. The following applies: for Ki: from LB plots; for Inhibition Type: sucrose substrate. On the procedure:
as §1, §2, §3

The mark [3] stands for this setting: read-out: Sucrase Inhibition IC50.

Like-named read-outs stand apart in the source and are kept apart here.

T1 sequence (P23739 whole entry): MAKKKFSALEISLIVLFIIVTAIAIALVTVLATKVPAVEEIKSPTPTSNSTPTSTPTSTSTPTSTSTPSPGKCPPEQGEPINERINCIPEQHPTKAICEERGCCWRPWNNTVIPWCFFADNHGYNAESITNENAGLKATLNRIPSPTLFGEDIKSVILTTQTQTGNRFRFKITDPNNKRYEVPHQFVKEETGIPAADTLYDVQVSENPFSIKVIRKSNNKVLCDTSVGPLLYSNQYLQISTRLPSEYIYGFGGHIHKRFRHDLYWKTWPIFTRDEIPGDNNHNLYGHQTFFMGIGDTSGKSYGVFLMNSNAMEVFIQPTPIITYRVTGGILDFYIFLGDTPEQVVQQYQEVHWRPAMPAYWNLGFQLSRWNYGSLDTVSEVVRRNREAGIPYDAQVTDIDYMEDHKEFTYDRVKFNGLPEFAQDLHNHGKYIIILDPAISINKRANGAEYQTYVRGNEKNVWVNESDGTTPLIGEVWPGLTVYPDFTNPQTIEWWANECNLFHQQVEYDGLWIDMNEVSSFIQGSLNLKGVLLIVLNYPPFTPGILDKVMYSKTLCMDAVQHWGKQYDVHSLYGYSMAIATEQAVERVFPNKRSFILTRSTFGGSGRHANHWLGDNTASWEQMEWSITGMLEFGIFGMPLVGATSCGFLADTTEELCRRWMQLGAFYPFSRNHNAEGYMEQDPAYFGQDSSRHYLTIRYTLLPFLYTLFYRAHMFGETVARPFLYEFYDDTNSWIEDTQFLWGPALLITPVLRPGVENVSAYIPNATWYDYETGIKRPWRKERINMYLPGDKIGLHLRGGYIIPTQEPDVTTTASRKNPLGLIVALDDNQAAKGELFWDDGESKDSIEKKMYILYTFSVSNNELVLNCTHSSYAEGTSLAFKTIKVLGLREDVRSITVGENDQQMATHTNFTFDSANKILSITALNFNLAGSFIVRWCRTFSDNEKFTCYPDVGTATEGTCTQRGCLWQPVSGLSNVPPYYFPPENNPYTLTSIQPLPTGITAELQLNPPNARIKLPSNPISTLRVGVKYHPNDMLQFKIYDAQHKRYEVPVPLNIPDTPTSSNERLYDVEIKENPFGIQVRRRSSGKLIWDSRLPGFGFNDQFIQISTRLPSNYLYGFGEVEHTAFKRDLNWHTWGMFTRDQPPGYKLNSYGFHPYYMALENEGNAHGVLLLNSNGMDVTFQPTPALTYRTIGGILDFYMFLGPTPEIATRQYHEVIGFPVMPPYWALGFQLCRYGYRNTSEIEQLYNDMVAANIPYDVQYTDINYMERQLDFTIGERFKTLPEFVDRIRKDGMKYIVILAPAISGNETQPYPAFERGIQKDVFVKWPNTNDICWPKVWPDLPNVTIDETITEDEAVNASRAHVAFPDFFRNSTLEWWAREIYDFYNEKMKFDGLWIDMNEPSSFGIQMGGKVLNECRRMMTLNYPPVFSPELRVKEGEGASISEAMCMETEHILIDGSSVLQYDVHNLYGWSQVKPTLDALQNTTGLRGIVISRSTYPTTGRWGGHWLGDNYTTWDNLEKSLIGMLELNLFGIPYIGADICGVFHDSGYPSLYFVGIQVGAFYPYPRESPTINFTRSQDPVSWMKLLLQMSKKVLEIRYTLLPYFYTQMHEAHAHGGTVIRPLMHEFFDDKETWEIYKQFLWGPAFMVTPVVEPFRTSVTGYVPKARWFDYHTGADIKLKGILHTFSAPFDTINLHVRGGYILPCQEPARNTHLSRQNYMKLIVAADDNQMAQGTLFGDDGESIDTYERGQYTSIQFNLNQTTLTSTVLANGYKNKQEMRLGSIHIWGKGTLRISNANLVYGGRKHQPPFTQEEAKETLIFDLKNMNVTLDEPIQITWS

Broadly, the IC50 is the concentration that inhibits the measured activity by half. A word on the Ki: it is a dissociation constant, usually derived from enzyme kinetics or from competition with a known ligand. Read a high Ki as a looser hold on the target. `OC[C@H]1NC[C@H](O)[C@@H](O)[C@@H]1O` [1-DNJ, 1-deoxynojirimycin]: the “Selectivity sucrase over amylase (IC50 amylase/IC50 disaccharidases)” value at sucrase [1] (IC50 amylase / IC50 sucrase) was 1282 times. The “Sucrase Inhibition, Inhibition Ratio (%)” value at sucrase [1] came to 100%. Besides, the IC50 at sucrase [1] (converted from μmol/L by mol wt, read-out: Sucrase IC50 after conversion according to the molecular weight (converted)) is 0.0613 µM. Moreover, the half-maximal inhibitory concentration (IC50) at sucrase [1] (setting [3]) was found to be 0.078 µM. Also, at α-amylase, the IC50 was greater than 100 µM; the “Inhibitory activity on α-amylase (in words)” value (“Inhibitory activity” for short) is recorded as “no obvious inhibitory activity”; the “α-Amylase Inhibition, Inhibition Ratio (%)” value was found to be 0%. On maltase, the “Inhibition Type” value is listed as “Competitive inhibition”. On sucrase [2], the inhibitory constant (Ki) worked out at 0.0137 µM and the “Inhibition Type” value is listed as “Competitive inhibition”.
Turning to `C[C@H]1O[C@H](O[C@H]2[C@H](O)[C@@H](O)[C@@H](O[C@H]3[C@H](O)[C@@H](O)C(O)O[C@@H]3CO)O[C@@H]2CO)[C@H](O)[C@@H](O)[C@@H]1N[C@H]1C=C(CO)[C@@H](O)[C@H](O)[C@H]1O` (stereo partly drawn) [Acarbose, acarbose, reference compound], the “Inhibitory activity” value with α-amylase is “strongly inhibited”. The “Inhibition Type” value at maltase and on sucrase [2] was “Competitive inhibition” in each case.
In the case of `OC[C@H]1NC[C@@H](O)[C@@H]1O` [DAB, 1,4-dideoxy-1,4-imino-D-arabinitol], on α-amylase, the IC50 is greater than 100 µM and the “Inhibitory activity” value was “no obvious inhibitory activity”. Moreover, the “Inhibition Type” value on maltase is “Competitive inhibition”.
On to `OC[C@H]1NCC[C@@H](O)[C@@H]1O` [FA, fagomine], for which the “Sucrase Inhibition, Inhibition Ratio (%)” value at sucrase [1] was determined as 84.6%. The half-inhibitory concentration (IC50) at sucrase [1] (setting [3]) stood at 13.5 µM. Moreover, on α-amylase, the IC50 is greater than 100 µM; the “Inhibitory activity” value is reported as “no obvious inhibitory activity”; the “α-Amylase Inhibition, Inhibition Ratio (%)” value is recorded as 0%. For the same compound, the “Inhibition Type” value on maltase is “Competitive inhibition”. Further, on sucrase [2], the Ki worked out at 3.97 µM and the “Inhibition Type” value is “Competitive inhibition”.
